According to ChEMBL document CHEMBL1131286, “Design and synthesis of m1-selective muscarinic agonists: (R)-(-)-(Z)-1-Azabicyclo[2.2.1]heptan-3-one, O-(3-(3'-methoxyphenyl)-2-propynyl)oxime maleate (CI-1017), a functionally m1-selective muscarinic agonist” (J Med Chem, 1998):
Activity calls are given as the source filed them. No cut-off for these calls is given here.

Assays:
[1] = molecular target: T1, Muscarinic acetylcholine receptor M1 (Homo sapiens, UniProt P11229); test: biochemical; type: cell-based, CHO
T1 sequence (P11229 whole entry): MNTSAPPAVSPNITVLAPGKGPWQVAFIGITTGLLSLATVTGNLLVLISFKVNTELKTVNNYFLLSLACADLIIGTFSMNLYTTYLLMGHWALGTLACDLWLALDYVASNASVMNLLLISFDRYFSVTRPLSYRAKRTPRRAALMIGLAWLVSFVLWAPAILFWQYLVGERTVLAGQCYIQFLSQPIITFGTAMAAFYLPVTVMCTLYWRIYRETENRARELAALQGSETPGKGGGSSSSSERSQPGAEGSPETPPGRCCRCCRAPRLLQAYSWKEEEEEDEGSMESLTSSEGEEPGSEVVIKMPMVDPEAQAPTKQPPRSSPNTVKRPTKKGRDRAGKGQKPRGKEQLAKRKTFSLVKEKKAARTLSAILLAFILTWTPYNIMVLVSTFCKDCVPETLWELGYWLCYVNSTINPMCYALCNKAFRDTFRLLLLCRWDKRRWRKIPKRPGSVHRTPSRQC
Description: Binding affinity of [3H]-QNB to CHO cells expressing human Muscarinic acetylcholine receptor M1

[2] = molecular target: Muscarinic acetylcholine receptor M3 (Homo sapiens) (UniProt P20309); test: Inositol phosphate(PI) accumulation in CHO cells expressing Muscarinic acetylcholine receptor M3 as maximal response at 100 uM relative to carbachol; type: functional, cell-based
[3] = molecular target: Muscarinic acetylcholine receptor (Rattus norvegicus) (UniProt P08482+P08483+P08485+P08911+P10980); test: Ratio of QNB binding to CMD binding was evaluated; type: protein assay
[4] = molecular target: T2, Muscarinic acetylcholine receptor M1 (Homo sapiens) (UniProt P11229); test: Stimulation of inositol phosphate(PI) accumulation in CHO cells expressing Muscarinic acetylcholine receptor M1 as maximal response at 100 uM relative to carbachol; type: functional, cell-based
T2 sequence (whole entry): T1 sequence (P11229 whole entry)

[5] = molecular target: T3, Muscarinic acetylcholine receptor M2 (Homo sapiens, UniProt P08172); test: Binding affinity of [3H]QNB to CHO cells expressing human Muscarinic acetylcholine receptor M2; type: cell-based
T3 sequence (P08172 whole entry): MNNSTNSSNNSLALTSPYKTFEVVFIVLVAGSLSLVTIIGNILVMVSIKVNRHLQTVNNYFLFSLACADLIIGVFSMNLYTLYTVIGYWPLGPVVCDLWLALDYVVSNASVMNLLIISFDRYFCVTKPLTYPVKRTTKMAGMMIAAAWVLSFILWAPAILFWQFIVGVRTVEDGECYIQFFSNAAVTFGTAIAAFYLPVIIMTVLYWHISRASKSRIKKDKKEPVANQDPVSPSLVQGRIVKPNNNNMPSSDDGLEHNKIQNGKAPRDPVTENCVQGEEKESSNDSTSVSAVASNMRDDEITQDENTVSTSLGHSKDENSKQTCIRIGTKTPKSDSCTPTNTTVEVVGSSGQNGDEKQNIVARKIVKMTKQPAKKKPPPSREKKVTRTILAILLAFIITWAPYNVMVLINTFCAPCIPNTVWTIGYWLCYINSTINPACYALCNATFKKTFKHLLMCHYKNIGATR

[6] = molecular target: T4, Muscarinic acetylcholine receptor M5 (Homo sapiens) (UniProt P08912); test: Stimulations of inositol phosphate(PI) ccumulation in transfected CHO cells in Muscarinic acetylcholine receptor M5 values are the maximal response obtained from the compound tested at 100 uM normalized to the effect of carbachol.; type: functional, cell-based
T4 sequence (whole entry): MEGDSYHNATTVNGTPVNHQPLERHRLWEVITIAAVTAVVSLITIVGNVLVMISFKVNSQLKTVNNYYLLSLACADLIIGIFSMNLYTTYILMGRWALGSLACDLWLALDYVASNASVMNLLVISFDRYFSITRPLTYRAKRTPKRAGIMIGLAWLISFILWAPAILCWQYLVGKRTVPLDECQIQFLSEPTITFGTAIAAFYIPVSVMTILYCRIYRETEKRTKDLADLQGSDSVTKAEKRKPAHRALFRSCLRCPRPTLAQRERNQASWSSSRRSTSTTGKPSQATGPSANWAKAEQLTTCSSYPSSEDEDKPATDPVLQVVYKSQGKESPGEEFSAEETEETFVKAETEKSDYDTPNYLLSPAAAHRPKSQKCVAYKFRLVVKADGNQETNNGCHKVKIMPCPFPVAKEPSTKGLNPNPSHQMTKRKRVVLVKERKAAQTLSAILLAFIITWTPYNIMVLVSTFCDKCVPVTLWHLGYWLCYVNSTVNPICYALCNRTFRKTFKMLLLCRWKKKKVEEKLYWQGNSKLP

[7] = molecular target: T5, Muscarinic acetylcholine receptor M2 (Homo sapiens) (UniProt P08172); test: Reversal of forskolin-stimulated accumulation of […] in transfected CHO cells, against Muscarinic acetylcholine receptor M2; Not active up to 1 mM; type: functional, cell-based
T5 sequence (whole entry): T3 sequence (P08172 whole entry)

[8] = molecular target: T2, Muscarinic acetylcholine receptor M1 (Homo sapiens); details: NIH3T3
Description: Amplification of transfected NIH3T3 cells was measured in Muscarinic acetylcholine receptor M1 required to produce half maximal effect

[9] = molecular target: T2, Muscarinic acetylcholine receptor M1 (Homo sapiens); details: CHO
[10] = molecular target: T6, Muscarinic acetylcholine receptor M4 (Homo sapiens) (UniProt P08173); test: Reversal of forskolin-stimulated accumulation of […] in transfected CHO cells, against Muscarinic acetylcholine receptor M4; type: functional, cell-based; details: concentration not given here
T6 sequence (whole entry): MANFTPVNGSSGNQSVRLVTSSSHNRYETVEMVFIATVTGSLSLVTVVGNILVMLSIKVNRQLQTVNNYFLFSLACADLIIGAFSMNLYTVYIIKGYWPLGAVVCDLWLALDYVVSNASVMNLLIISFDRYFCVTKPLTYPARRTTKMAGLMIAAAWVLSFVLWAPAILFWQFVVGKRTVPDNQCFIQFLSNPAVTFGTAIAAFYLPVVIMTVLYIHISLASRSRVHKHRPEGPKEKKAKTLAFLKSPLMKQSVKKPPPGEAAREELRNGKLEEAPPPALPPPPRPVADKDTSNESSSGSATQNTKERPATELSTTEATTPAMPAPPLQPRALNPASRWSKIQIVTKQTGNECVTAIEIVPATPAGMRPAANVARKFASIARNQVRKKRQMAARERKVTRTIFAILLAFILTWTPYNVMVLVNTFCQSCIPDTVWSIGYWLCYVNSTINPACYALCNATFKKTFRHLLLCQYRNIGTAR

[11] = molecular target: T4, Muscarinic acetylcholine receptor M5 (Homo sapiens); test: Amplification of transfected NIH3T3 cells was measured in Muscarinic acetylcholine receptor M5 required to produce half maximal effect; type: functional, cell-based
[12] = molecular target: Muscarinic acetylcholine receptor M3 (Homo sapiens) (UniProt P20309); details: NIH3T3
Description: Amplification of transfected NIH3T3 cells was measured in Muscarinic acetylcholine receptor M3 required to produce half maximal effect

[13] = molecular target: Muscarinic acetylcholine receptor M3 (Homo sapiens) (UniProt P20309); test: Maximal response obtained for each drug normalized to effect of carbachol in Muscarinic acetylcholine receptor M3; type: functional
[14] = molecular target: T5, Muscarinic acetylcholine receptor M2 (Homo sapiens); test: Maximal response obtained for each drug normalized to effect of carbachol in Muscarinic acetylcholine receptor M2; type: functional
[15] = molecular target: T2, Muscarinic acetylcholine receptor M1 (Homo sapiens); test: Maximal response obtained for each drug normalized to effect of carbachol in Muscarinic acetylcholine receptor M1; type: functional
[16] = molecular target: Muscarinic acetylcholine receptor M3 (Homo sapiens) (UniProt P20309); test: Stimulations of inositol phosphate(PI) accumulation in transfected CHO cells in Muscarinic acetylcholine receptor M3 values are the maximal response obtained from the compound tested at 100 uM normalized to the effect of carbachol.; type: functional, cell-based
[17] = molecular target: T5, Muscarinic acetylcholine receptor M2 (Homo sapiens); test: Amplification of transfected NIH3T3 cells was measured in Muscarinic acetylcholine receptor M2 required to produce half maximal effect; type: functional, cell-based
[18] = molecular target: T4, Muscarinic acetylcholine receptor M5 (Homo sapiens); test: Maximal response obtained for each drug normalized to effect of carbachol in Muscarinic acetylcholine receptor M5; type: functional
[19] = molecular target: T6, Muscarinic acetylcholine receptor M4 (Homo sapiens); test: Maximal response obtained for each drug normalized to effect of carbachol in Muscarinic acetylcholine receptor M4; type: functional
[20] = molecular target: T4, Muscarinic acetylcholine receptor M5 (Homo sapiens); test: Stimulations of inositol phosphate(PI) accumulation in transfected CHO cells in Muscarinic acetylcholine receptor M5 values are the maximal response obtained from the compound tested at 100 uM normalized to the effect of carbachol.; type: functional, cell-based
[21] = molecular target: T6, Muscarinic acetylcholine receptor M4 (Homo sapiens); test: Amplification of transfected NIH3T3 cells was measured in Muscarinic acetylcholine receptor M4 required to produce half maximal effect; type: functional, cell-based
[22] = molecular target: T3, Muscarinic acetylcholine receptor M2; test: Binding affinity of compound labeled by [3H]QNB in CHO cells selectively expressing human Muscarinic acetylcholine receptor M2; type: cell-based
[23] = molecular target: T1, Muscarinic acetylcholine receptor M1; test: Binding affinity of compound labeled by [3H]QNB in CHO cells selectively expressing human Muscarinic acetylcholine receptor M1; type: cell-based
[24] = molecular target: Muscarinic acetylcholine receptor; test: Muscarinic acetylcholine receptor binding assay was conducted using [3H]quinuclidinyl benzilate (QNB) to label antagonist sites in membrane preparations from rat neocortex
[25] = molecular target: Muscarinic acetylcholine receptor; test: Muscarinic acetylcholine receptor binding assay was conducted using [3H]cis-methyldioxolane (CMD) to label agonist sites in membrane preparations from rat neocortex
[26] = molecular target: T2, Muscarinic acetylcholine receptor M1 (Homo sapiens); test: Stimulations of inositol phosphate(PI) accumulation in transfected CHO cells in Muscarinic acetylcholine receptor M1 values are the maximal response obtained from the compound tested at 100 uM normalized to the effects of carbachol.; type: functional, cell-based
[27] = molecular target: T4, Muscarinic acetylcholine receptor M5 (Homo sapiens); test: Inositol phosphate(PI) accumulation in CHO cells expressing Muscarinic acetylcholine receptor M5 as maximal response at 100 uM relative to carbachol; type: functional, cell-based
[28] = molecular target: T5, Muscarinic acetylcholine receptor M2 (Homo sapiens); details: CHO
Description: Binding affinity expressed in IC50 labelled by [3H]QNB in CHO cells expressing human Muscarinic acetylcholine receptor M2

[29] = molecular target: T6, Muscarinic acetylcholine receptor M4 (Homo sapiens); details: NIH3T3
[30] = molecular target: T4, Muscarinic acetylcholine receptor M5 (Homo sapiens); details: CHO; 100 uM
[31] = molecular target: T4, Muscarinic acetylcholine receptor M5 (Homo sapiens); test: Stimulations of inositol phosphate(PI) accumulation in transfected CHO cells in Muscarinic acetylcholine receptor M5 values are the maximal response obtained from the compound tested at 100 uM normalized to the effects of carbachol.; type: functional, cell-based
[32] = molecular target: T6, Muscarinic acetylcholine receptor M4 (Homo sapiens); test: Reversal of forskolin-stimulated accumulation of […] in transfected CHO cells, against Muscarinic acetylcholine receptor M4; NA=Not active up to 1 mM; type: functional, cell-based
[33] = molecular target: T6, Muscarinic acetylcholine receptor M4 (Homo sapiens); test: Reversal of forskolin-stimulated accumulation of […] in transfected CHO cells, against Muscarinic acetylcholine receptor M4; Not active; type: functional, cell-based
[34] = molecular target: T2, Muscarinic acetylcholine receptor M1 (Homo sapiens); test: Stimulations of inositol phosphate(PI) accumulation in transfected CHO cells in Muscarinic acetylcholine receptor M1 values are the maximal response obtained from the compound tested at 100 uM normalized to the effect of carbachol.; type: functional, cell-based

Sequence of Muscarinic acetylcholine receptor M3 (Homo sapiens) (P20309 whole entry, looked up): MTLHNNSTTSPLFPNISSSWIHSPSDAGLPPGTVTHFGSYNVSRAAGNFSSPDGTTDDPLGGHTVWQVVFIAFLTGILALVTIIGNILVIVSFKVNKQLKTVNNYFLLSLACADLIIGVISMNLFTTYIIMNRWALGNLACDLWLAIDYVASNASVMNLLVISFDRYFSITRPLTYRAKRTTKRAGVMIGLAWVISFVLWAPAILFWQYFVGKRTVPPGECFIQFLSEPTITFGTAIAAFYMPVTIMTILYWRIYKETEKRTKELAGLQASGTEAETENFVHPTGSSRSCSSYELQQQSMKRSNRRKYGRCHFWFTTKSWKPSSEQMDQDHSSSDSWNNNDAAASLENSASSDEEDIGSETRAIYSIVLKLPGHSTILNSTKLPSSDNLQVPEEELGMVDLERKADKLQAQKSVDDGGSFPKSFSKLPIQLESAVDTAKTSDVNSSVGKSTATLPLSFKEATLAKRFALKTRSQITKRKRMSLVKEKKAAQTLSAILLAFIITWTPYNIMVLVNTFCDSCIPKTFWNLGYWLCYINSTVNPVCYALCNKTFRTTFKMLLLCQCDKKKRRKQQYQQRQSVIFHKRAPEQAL

COc1ccc(C#CCO/N=C2\CN3CCC2C3)cc1 (configuration not stated)
IC50 [1]: 10.6 µM | CCh [2]: 2% | Ratio [3]: 119 | CCh [4]: 89% | IC50 [5]: 84.4 µM | CCh [6]: 3%

COc1cccc(C#CCO/N=C2\CN3CC[C@@H]2C3)c1
ED50 [7]: inactive | ED50 [8]: 0.042 µM | ED50 [9]: 1 µM | inhibition [10]: 1.6% | ED50 [11]: 0.868 µM | ED50 [12]: 0.865 µM | CCh [13]: 87% | CCh [14]: 92% | CCh [15]: 41% | Stimulation [16]: 10.4% | ED50 [17]: 1.28 µM | CCh [18]: 104% | CCh [19]: 72% | Stimulation [20]: 12.3% | ED50 [21]: 0.051 µM

CC(C)=CCO/N=C1\CN2CCC1C2 (configuration not stated)
IC50 [22]: 0.519 µM | IC50 [23]: 0.216 µM | Ratio [3]: 179 | IC50 [24]: 1.27 µM | IC50 [25]: 0.00708 µM

Clc1cccc(C#CCO/N=C2\CN3CCC2C3)c1 (configuration not stated)
CCh [26]: 41% | CCh [27]: 3% | IC50 [1]: 3.34 µM | CCh [2]: 4% | Ratio [3]: 203 | IC50 [5]: 20.6 µM

C[N+](C)(C)CCOC(N)=O
ED50 [28]: 0.27 µM | inhibition [10]: 6.3% | ED50 [11]: 1.4 µM | ED50 [29]: 0.1 µM | Stimulation [20]: 100% | ED50 [30]: 2.7 µM

COc1cccc(C#CCO/N=C2\CN3CCC2C3)c1 (configuration not stated)
CCh [31]: 11% | IC50 [1]: 7.68 µM | ED50 [7]: inactive | ED50 [8]: 0.042 µM | CCh [2]: 6% | ED50 [11]: 5.99 µM | ED50 [32]: inactive | Ratio [3]: 250 | ED50 [12]: 3.86 µM | CCh [13]: 93% | CCh [14]: 81% | CCh [15]: 30% | CCh [4]: 82% | IC50 [5]: 52 µM | ED50 [17]: 1.32 µM | CCh [18]: 103% | CCh [19]: 68% | ED50 [21]: 0.093 µM

C(#Cc1ccccc1)CO/N=C1\CN2CCC1C2 (configuration not stated)
ED50 [33]: inactive | ED50 [7]: inactive | Ratio [3]: 108 | Stimulations [16]: 8% | Stimulations [34]: 40% | Stimulations [20]: 1%
